As usually defined, the melting point is the temperature of the solid-liquid transition.

The target in data set [1] is T1, Flt3 (FMS-like tyrosine kinase-3) (Homo sapiens, UniProt P36888).
T1 sequence (P36888 27-993): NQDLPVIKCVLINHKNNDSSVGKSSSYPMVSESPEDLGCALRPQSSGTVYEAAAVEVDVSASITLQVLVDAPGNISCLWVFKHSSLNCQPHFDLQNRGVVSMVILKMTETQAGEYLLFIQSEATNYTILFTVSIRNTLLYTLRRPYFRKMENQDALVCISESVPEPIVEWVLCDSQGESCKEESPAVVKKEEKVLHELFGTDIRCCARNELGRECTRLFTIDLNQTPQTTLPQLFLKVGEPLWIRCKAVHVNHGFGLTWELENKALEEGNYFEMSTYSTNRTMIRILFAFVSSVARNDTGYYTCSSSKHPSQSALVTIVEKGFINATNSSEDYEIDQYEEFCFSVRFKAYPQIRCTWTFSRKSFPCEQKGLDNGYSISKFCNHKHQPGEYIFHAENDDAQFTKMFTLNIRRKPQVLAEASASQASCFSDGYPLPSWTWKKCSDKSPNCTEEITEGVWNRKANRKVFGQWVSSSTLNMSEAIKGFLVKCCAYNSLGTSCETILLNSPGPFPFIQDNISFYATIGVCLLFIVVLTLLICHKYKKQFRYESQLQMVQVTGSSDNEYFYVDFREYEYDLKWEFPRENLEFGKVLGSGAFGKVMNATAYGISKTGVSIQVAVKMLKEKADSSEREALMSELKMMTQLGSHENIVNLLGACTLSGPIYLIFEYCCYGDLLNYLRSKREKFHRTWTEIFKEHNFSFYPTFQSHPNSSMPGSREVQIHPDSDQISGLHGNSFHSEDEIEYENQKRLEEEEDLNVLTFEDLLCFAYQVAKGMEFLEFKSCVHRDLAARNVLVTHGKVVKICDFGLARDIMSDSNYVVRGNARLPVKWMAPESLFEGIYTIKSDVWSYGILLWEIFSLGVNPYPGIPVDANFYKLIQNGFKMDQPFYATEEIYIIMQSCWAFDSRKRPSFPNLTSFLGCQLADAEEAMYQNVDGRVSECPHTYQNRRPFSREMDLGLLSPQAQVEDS
Nature of the data set: Kinase assay (radioactive phosphate incorporation), Flt3. It counts as biochemical. The conditions noted are these: pIC50 is -log(IC50, M), read-out: Kinase Inhibition pIC50 Flt3 (converted). The protocol:
Kinase assays. The compounds of the invention above were investigated for their ability to inhibit the enzymatic activity of various protein kinases (Table 2). This was achieved by measurement of incorporation of radioactive phosphate from ATP into appropriate polypeptide substrates. Recombinant protein kinases and kinase complexes were produced or obtained commercially. Assays were performed using 96-well plates and appropriate assay buffers (typically 25 mM β-glycerophosphate, 20 mM MOPS, 5 mM EGTA, 1 mM DTT, 1 mM […], pH 7.4), into which were added 2-4 μg of active enzyme with appropriate substrates. The reactions were initiated by addition of Mg/ATP mix (15 mM MgCl2+100 μM ATP with 30-50 kBq per well of [γ-^32P]-ATP) and mixtures incubated as required at 30° C. Reactions were stopped on ice, followed by filtration through p81 filterplates or GF/C filterplates (Whatman Polyfiltronics, Kent, UK). After washing 3 times with 75 mM aq orthophosphoric acid, plates were dried, scintillant added and incorporated radioactivity measured in a scintillation counter (TopCount, Packard Instruments, Pangbourne, Berks, UK). Compounds for kinase assay were made up as 10 mM stocks in DMSO and diluted into 10% DMSO in assay buffer.

The target of a further data set is T2, Aurora A kinase (Homo sapiens, UniProt O14965).
T2 construct: purchased
T2 sequence (O14965 1-403): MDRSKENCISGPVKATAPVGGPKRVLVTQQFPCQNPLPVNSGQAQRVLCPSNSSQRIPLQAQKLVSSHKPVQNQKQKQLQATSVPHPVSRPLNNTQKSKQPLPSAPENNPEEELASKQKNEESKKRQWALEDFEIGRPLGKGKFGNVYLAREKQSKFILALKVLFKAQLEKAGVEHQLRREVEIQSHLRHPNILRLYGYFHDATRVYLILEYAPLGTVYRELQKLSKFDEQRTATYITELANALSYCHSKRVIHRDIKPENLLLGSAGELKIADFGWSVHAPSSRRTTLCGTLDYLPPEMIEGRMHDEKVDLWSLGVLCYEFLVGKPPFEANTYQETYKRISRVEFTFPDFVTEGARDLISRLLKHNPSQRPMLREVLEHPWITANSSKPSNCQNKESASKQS
As to the kind of experiment: Aurora-A (human) kinase assay (Kemptide substrate). Particulars: pIC50 is -log(IC50, M); 15 μM ATP; read-out: Kinase Inhibition pIC50 Aurora A kinase (converted). Type of data set: biochemical. An outline of the steps: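 Kemptide (LRRASLG, 200 μM) phosphorylation by 5-10 ng commercial aurora-A measured as [γ-33P] incorporation at 15 μM ATP with 10 mM Mg acetate, pH 7.0 MOPS buffer. Reaction ran 40 min at room temperature; acid-stopped, captured on P81 filters, scintillation read.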

The target in another data set is CDK2-cycline E (Homo sapiens, UniProt P24941). As to the kind of experiment: Kinase assay (radioactive phosphate incorporation), CDK2-cyclin E. It counts as biochemical. Particulars: read-out: Kinase Inhibition pIC50 CDK2-cycline E (converted). An outline of the steps: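 Each recombinant kinase was combined with its polypeptide substrate in pH 7.4 assay buffer. Mg/ATP mix carrying [γ-32P]-ATP (100 μM ATP) was then added and the plate incubated at 30° C. After stopping on ice, the reaction was filtered, washed with 75 mM orthophosphoric acid, dried and counted.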

In a further data set the target is CDK7/cyclin H (Homo sapiens, UniProt P50613). Nature of the data set: CDK 7 assay (CTD peptide substrate). It counts as biochemical. The conditions noted are these: read-out: Kinase Inhibition pIC50 CDK7-cyclin H (converted). Summed up: (§1)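 Inhibition measured against recombinant human kinase/cyclin complex phosphorylating biotin-(Tyr-Ser-Pro-Thr-Ser-Pro-Ser)4 peptide, 100 μM radiolabelled ATP, 45 min at 30° C. Product quantified by filter capture and scintillation counting.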

In another data set the target is CDK9/cyclin T1 (Homo sapiens, UniProt P50750). As to the kind of experiment: CDK 9 assay (CTD peptide substrate). Particulars: read-out: Kinase Inhibition pIC50 CDK9-cyclin T1 (converted). Type of data set: biochemical. Summed up: as §1
Sequence of CDK9/cyclin T1 (P50750 whole entry): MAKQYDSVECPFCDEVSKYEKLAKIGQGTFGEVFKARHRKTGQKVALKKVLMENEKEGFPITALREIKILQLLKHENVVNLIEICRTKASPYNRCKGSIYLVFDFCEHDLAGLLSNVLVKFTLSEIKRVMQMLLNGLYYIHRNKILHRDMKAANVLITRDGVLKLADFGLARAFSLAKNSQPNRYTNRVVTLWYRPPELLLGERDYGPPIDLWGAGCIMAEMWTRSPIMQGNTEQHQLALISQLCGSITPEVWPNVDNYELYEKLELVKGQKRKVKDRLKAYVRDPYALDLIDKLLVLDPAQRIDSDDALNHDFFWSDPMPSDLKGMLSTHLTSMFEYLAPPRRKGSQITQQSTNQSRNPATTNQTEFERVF
Sequence of CDK9/cyclin T1 (O60563 whole entry partner): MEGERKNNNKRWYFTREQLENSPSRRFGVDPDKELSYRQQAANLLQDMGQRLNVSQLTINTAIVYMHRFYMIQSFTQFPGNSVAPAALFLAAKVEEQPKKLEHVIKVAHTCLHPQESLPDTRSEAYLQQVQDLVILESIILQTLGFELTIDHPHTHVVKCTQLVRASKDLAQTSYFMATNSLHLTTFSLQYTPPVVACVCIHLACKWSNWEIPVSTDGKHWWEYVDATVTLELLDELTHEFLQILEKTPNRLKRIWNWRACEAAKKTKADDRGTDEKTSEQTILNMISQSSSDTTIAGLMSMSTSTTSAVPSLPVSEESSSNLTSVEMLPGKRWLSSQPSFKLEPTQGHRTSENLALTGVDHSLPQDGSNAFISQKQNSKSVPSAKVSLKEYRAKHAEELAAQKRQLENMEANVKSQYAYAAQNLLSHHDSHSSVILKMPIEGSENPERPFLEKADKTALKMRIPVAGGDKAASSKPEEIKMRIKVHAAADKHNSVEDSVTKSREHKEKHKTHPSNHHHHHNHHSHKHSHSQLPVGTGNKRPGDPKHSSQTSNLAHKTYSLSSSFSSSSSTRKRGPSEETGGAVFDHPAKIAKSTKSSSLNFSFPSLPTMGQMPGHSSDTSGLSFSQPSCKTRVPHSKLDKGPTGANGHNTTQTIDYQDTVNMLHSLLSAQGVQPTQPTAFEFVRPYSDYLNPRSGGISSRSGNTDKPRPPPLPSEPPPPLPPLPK

Sequence of CDK7/cyclin H (P50613 whole entry): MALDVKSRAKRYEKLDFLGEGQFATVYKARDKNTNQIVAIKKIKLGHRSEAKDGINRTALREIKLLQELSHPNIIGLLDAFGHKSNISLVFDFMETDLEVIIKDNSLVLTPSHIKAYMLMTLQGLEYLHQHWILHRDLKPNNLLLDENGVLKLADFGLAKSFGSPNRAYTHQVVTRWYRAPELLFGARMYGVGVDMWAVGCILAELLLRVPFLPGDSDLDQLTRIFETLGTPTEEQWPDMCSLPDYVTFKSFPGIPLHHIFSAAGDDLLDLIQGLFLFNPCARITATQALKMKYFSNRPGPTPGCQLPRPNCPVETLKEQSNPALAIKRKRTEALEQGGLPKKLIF
Sequence of CDK7/cyclin H (P51946 whole entry partner): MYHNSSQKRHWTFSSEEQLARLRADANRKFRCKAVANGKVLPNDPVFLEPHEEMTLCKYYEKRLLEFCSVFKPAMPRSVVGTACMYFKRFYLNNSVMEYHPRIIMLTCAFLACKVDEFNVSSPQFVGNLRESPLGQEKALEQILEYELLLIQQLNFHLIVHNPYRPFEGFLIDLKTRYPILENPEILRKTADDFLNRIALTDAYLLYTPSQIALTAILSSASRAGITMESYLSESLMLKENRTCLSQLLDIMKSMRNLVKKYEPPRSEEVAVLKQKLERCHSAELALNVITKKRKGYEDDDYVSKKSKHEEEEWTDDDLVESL

On to `Cc1nc(-c2cccnc2)sc1-c1ccnc(Nc2ccc(N3CCOCC3)cc2)n1` [Compound 100, [4-(4-Methyl-2-pyridin-3-yl-thiazol-5-yl)-pyrimidin-2-yl]-(4-morpholin-4-yl-phenyl)-amine], for which the melting point was 240 to 242 °C. Also, in data set [1], the IC50 was 316 nM. In addition, the IC50 on Aurora A kinase is 251 nM.
`CC(=O)NCc1ccc(Nc2nccc(-c3sc(-c4cccnc4)nc3C)n2)cc1` [Compound 103, N-{4-[4-(4-Methyl-2-pyridin-3-yl-thiazol-5-yl)-pyrimidin-2-ylamino]-benzyl}-acetamide] registered a melting point of 199 to 201 °C. The IC50 on CDK2-cycline E is 2510 nM. Moreover, the IC50 at CDK7/cyclin H was 2510 nM. Besides, at CDK9/cyclin T1, the IC50 is 5.01 µM.
Regarding `CC(=O)N1CCN(c2ccc(Nc3nccc(-c4sc(-c5cccs5)nc4C)n3)cc2)CC1` [Compound 131, 1-(4-{4-[4-(4-Methyl-2-thiophen-2-yl-thiazol-5-yl)-pyrimidin-2-ylamino]-phenyl}-piperazin-1-yl)-ethanone], the melting point lay in the range of 134 to 136 °C. Also, the IC50 at CDK2-cycline E is 2510 nM. The IC50 on CDK7/cyclin H was 1580 nM. Besides, the IC50 at CDK9/cyclin T1 was 2.51 µM. Besides, the IC50 on Aurora A kinase was 251 nM.
`Cc1nc(NCCc2ccccc2)sc1-c1ccnc(Nc2ccc(N3CCOCC3)cc2)n1` [Compound 158, [4-(4-Methyl-2-phenethylamino-thiazol-5-yl)-pyrimidin-2-yl]-(4-morpholin-4-yl-phenyl)-amine] gave a melting point of 226 to 228 °C. Besides, on CDK2-cycline E, the IC50 was 1000 nM. Also, the IC50 at Aurora A kinase was 200 nM.
For the compound `COc1cc(Nc2nccc(-c3sc(N)nc3C)n2)cc(OC)c1` [Compound 161, [4-(2-Amino-4-methyl-thiazol-5-yl)-pyrimidin-2-yl]-(3,5-dimethoxy-phenyl)-amine], the melting point lay in the range of 269 to 271 °C. Also, the IC50 at CDK2-cycline E is 158 nM. Moreover, the IC50 in data set [1] was 5.01 nM. Further, the IC50 at Aurora A kinase is 100 nM.
As to `COc1cc(Nc2nccc(-c3sc(NCCc4ccccc4)nc3C)n2)cc(OC)c1OC` [Compound 165, [4-(4-Methyl-2-phenethylamino-thiazol-5-yl)-pyrimidin-2-yl]-(3,4,5-trimethoxy-phenyl)-amine], the melting point lay in the range of 184 to 186 °C. For the same compound, the IC50 on CDK2-cycline E is 2510 nM. Moreover, the IC50 in data set [1] was 20 nM. In addition, on Aurora A kinase, the IC50 was 63.1 nM.
With `CCNc1nc(C)c(-c2ccnc(Nc3ccc4c(c3)OCO4)n2)s1` [Compound 178, Benzo[1,3]dioxol-5-yl-[4-(2-ethylamino-4-methyl-thiazol-5-yl)-pyrimidin-2-yl]-amine], the melting point lay within 194 to 195 °C. Besides, the IC50 on CDK2-cycline E is 200 nM. Moreover, on Aurora A kinase, the IC50 is 158 nM.
Turning to `Cc1nc(N)sc1-c1ccnc(Nc2ccc3c(c2)OCO3)n1` [Compound 179, [4-(2-Amino-4-methyl-thiazol-5-yl)-pyrimidin-2-yl]-benzo[1,3]dioxol-5-yl-amine], the melting point lay in the range of 211 to 213 °C. In addition, the IC50 on CDK2-cycline E was 100 nM. Also, on Aurora A kinase, the IC50 was 79.4 nM.
For `Cc1nc(N)sc1-c1ccnc(Nc2ccc(N3CCSCC3)cc2)n1` [Compound 201, [4-(2-Amino-4-methyl-thiazol-5-yl)-pyrimidin-2-yl]-(4-thiomorpholin-4-yl-phenyl)-amine], the melting point was 180 to 182 °C. The IC50 at CDK2-cycline E was 1580 nM. Further, the IC50 at CDK9/cyclin T1 was 1.58 µM. For the same compound, the IC50 on Aurora A kinase is 63.1 nM.
On to `Cc1nc(C)c(-c2ccnc(Nc3ccc(N4CCSCC4)cc3)n2)s1` [Compound 202, [4-(2,4-Dimethyl-thiazol-5-yl)-pyrimidin-2-yl]-(4-thiomorpholin-4-yl-phenyl)-amine], for which the melting point was 173 to 174 °C. Also, the IC50 on CDK2-cycline E is 5010 nM. For the same compound, on Aurora A kinase, the IC50 was 158 nM.
Take `CCNc1nc(C)c(-c2ccnc(Nc3ccc(N4CCSCC4)cc3)n2)s1` [Compound 203, [4-(2-Ethylamino-4-methyl-thiazol-5-yl)-pyrimidin-2-yl]-(4-thiomorpholin-4-yl-phenyl)-amine]: the melting point was 207 to 209 °C. Also, the IC50 on CDK2-cycline E was 2000 nM. For the same compound, the IC50 on CDK9/cyclin T1 is 3.16 µM. Further, the IC50 on Aurora A kinase was 126 nM.
On to `Cc1cc(Nc2nccc(-c3sc(N)nc3C)n2)ccc1N1CCCCC1` [Compound 206, [4-(2-Amino-4-methyl-thiazol-5-yl)-pyrimidin-2-yl]-(3-methyl-4-piperidin-1-yl-phenyl)-amine], for which the melting point fell in the range of 221 to 223 °C. The IC50 on CDK2-cycline E is 1260 nM. The IC50 on Aurora A kinase is 158 nM.
Turning to `Cc1cc(Nc2nccc(-c3sc(N)nc3C)n2)ccc1N1CCOCC1` [Compound 218, [4-(2-Amino-4-methyl-thiazol-5-yl)-pyrimidin-2-yl]-(3-methyl-4-morpholin-4-yl-phenyl)-amine], the melting point lay in the range of 256 to 257 °C. Also, on CDK2-cycline E, the IC50 is 1260 nM. For the same compound, the IC50 on CDK9/cyclin T1 is 1.58 µM. The IC50 at Aurora A kinase was 63.1 nM.
On the same counts, the results for `CCNc1nc(C)c(-c2ccnc(Nc3ccc(N4CCOCC4)c(C)c3)n2)s1` [Compound 219, [4-(2-Ethylamino-4-methyl-thiazol-5-yl)-pyrimidin-2-yl]-(3-methyl-4-morpholin-4-yl-phenyl)-amine] are 213 to 214 °C, 1000 nM, 3.16 µM and 63.1 nM.
In turn, `Cc1nc(C)c(-c2ccnc(Nc3ccc(N4CCOCC4)c(C)c3)n2)s1` [Compound 220, [4-(2,4-Dimethyl-thiazol-5-yl)-pyrimidin-2-yl]-(3-methyl-4-morpholin-4-yl-phenyl)-amine] displayed a melting point of 164 to 166 °C. In addition, at CDK2-cycline E, the IC50 is 1260 nM. For the same compound, the IC50 at CDK9/cyclin T1 was 6.31 µM. For the same compound, the IC50 at Aurora A kinase is 39.8 nM.

Source of the values: US20090137572A1, “2-substituted-4-heteroaryl-pyrimidines useful for the treatment of proliferative disorders” (priority 2004, published 2009).
